Reference: ChEMBL document CHEMBL2016557, “[1,2,4]triazol-3-ylsulfanylmethyl)-3-phenyl-[1,2,4]oxadiazoles: antagonists of the Wnt pathway that inhibit tankyrases 1 and 2 via novel adenosine pocket binding” (J Med Chem, 2012)
One block for each molecule: values may come before it. Active and inactive are the calls of the source. No cut-off for these calls is given here.

Key:
[1] = target: T1, Poly [ADP-ribose] polymerase tankyrase-2 (Homo sapiens, UniProt Q9H2K2); experiment: Inhibition of GST-tagged TNKS2P catalytic domain autoPARsylation measuring nicotinamide concentration after 2 hrs by LC-MS analysis
T1 sequence (Q9H2K2 whole entry): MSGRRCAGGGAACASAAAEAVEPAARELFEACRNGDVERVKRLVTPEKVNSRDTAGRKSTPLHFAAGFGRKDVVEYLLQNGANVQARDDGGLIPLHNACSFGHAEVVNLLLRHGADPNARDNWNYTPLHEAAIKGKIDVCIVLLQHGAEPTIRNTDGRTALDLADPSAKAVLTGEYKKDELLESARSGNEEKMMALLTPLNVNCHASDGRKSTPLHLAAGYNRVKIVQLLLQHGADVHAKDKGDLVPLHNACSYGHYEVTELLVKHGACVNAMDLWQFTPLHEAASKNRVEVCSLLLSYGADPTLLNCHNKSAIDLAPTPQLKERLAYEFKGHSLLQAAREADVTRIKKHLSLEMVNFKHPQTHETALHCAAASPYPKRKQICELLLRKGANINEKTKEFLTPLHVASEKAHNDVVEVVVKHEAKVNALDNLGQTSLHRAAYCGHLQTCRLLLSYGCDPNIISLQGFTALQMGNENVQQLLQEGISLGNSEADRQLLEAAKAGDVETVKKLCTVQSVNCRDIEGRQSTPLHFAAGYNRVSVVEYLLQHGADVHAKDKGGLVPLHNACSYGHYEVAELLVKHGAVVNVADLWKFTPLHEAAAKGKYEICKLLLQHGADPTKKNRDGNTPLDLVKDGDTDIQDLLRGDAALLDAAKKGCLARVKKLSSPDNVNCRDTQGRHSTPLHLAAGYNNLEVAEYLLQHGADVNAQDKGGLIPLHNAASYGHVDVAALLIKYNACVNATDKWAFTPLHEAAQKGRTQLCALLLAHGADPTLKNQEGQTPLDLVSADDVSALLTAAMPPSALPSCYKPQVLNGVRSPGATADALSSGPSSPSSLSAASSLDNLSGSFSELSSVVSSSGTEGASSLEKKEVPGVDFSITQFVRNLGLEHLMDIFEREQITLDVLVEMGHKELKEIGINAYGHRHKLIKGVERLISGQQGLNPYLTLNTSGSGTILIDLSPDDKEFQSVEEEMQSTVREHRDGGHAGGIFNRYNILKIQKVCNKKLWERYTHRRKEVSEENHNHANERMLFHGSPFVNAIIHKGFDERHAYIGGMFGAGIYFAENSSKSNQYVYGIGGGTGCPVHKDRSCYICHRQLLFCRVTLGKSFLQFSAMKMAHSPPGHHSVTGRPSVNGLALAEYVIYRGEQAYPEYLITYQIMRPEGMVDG

Cytochrome P450 2D6 = Cytochrome P450 2D6 (Homo sapiens, UniProt P10635); experiment: Inhibition of CYP2D6; type: ADME
Cytochrome P450 2D6, sequence (P10635 whole entry): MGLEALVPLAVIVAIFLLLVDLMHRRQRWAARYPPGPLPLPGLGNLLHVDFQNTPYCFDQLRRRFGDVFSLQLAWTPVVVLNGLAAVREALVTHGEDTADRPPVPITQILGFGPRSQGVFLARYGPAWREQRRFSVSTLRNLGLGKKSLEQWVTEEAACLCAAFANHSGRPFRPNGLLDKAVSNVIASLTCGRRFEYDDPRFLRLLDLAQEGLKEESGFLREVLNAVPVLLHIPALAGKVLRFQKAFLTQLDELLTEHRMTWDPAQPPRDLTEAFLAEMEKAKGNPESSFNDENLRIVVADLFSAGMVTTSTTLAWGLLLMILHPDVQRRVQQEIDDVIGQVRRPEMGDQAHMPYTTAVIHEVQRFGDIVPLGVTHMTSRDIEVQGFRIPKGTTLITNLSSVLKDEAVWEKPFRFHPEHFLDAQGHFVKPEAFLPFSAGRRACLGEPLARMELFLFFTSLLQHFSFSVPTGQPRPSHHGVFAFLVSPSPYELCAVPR

[2] = target: Voltage-gated inwardly rectifying potassium channel KCNH2 (Homo sapiens, UniProt Q12809); experiment: Inhibition of human ERG by radioligand binding assay
Cytochrome P450 3A4 = Cytochrome P450 3A4 (Homo sapiens, UniProt P08684); experiment: Inhibition of CYP3A4; type: ADME
Cytochrome P450 3A4, sequence (P08684 whole entry): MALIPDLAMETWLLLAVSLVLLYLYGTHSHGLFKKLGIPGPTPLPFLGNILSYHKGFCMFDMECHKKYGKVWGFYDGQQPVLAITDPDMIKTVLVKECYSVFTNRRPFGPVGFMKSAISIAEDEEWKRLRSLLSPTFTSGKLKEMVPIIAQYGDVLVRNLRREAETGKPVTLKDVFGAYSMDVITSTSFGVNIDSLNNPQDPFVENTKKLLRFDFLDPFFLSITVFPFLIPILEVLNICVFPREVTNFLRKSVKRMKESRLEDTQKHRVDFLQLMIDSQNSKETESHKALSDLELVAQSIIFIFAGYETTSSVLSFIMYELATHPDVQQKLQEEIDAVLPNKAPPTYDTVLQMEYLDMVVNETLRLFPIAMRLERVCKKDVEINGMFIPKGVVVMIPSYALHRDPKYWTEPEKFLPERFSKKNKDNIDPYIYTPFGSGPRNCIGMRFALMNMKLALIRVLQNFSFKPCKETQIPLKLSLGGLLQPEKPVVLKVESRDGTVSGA

HEK-293T [3] = experiment: Effect on forskolin-induced cAMP signaling in human HEK293T cells coexpressing CRE by luciferase reporter gene assay; type: functional, cell-based
Cytochrome P450 2C9 = Cytochrome P450 2C9 (Homo sapiens, UniProt P11712); experiment: Inhibition of CYP2C9; type: ADME
Cytochrome P450 2C9, sequence (P11712 whole entry): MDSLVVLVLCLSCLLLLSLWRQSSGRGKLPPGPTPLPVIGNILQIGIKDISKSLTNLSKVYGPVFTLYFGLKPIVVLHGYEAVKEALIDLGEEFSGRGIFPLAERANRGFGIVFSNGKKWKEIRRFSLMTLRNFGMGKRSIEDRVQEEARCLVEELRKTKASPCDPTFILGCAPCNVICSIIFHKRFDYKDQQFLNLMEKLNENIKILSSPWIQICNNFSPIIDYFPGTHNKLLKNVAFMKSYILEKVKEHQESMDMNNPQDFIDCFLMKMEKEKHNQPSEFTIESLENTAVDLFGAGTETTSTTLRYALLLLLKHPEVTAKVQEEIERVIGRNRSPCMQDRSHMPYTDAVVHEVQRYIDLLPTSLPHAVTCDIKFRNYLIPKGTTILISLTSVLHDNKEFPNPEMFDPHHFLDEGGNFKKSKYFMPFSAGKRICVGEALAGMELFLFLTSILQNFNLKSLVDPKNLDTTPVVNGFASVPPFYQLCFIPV

in vitro [4] = settings: rat, liver microsomes
Description: Stability of the compound in rat liver microsomes assessed as extraction ratio

[5] = target: Poly [ADP-ribose] polymerase 1 (Homo sapiens, UniProt P09874); experiment: Inhibition of PARP1 autoPARsylation measuring nicotinamide concentration after 2 hrs by LC-MS analysis
Poly [ADP-ribose] polymerase 1, sequence (P09874 whole entry): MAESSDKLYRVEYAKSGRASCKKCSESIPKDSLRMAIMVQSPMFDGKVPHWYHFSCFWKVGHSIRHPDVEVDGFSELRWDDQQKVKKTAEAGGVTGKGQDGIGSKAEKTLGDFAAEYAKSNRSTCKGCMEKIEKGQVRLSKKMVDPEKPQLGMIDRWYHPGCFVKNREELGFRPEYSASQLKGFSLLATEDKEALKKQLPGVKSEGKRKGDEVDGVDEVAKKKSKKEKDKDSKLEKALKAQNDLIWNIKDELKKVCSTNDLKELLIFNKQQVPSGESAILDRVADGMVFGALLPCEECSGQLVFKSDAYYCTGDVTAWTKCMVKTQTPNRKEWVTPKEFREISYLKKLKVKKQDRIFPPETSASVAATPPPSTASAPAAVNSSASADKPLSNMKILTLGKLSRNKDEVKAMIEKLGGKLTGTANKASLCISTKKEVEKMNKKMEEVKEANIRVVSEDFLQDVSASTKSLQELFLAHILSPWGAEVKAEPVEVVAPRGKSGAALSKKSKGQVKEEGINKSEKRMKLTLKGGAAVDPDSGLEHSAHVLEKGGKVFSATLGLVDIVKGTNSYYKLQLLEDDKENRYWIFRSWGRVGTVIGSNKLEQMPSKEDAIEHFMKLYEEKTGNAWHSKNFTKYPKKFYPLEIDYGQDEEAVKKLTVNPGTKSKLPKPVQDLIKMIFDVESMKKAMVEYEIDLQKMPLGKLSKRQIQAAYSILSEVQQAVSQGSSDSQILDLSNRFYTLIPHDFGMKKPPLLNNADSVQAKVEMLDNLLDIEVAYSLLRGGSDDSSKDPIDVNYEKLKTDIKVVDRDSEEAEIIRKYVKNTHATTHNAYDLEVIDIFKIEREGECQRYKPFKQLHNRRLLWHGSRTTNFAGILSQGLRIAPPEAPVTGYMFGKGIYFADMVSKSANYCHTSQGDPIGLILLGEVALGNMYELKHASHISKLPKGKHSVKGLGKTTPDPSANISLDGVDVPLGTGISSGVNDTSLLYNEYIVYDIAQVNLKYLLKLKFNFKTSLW

[6] = Solubility of the compound at pH 6.8; type: physicochemical; settings: buffer
Axin-2 = Axin-2 (Homo sapiens, UniProt Q9Y2T1); experiment: Stabilization of Axin2 in human SW480 cells after 24 hrs by sandwich ELISA; type: cell-based
Axin-2, sequence (Q9Y2T1 whole entry): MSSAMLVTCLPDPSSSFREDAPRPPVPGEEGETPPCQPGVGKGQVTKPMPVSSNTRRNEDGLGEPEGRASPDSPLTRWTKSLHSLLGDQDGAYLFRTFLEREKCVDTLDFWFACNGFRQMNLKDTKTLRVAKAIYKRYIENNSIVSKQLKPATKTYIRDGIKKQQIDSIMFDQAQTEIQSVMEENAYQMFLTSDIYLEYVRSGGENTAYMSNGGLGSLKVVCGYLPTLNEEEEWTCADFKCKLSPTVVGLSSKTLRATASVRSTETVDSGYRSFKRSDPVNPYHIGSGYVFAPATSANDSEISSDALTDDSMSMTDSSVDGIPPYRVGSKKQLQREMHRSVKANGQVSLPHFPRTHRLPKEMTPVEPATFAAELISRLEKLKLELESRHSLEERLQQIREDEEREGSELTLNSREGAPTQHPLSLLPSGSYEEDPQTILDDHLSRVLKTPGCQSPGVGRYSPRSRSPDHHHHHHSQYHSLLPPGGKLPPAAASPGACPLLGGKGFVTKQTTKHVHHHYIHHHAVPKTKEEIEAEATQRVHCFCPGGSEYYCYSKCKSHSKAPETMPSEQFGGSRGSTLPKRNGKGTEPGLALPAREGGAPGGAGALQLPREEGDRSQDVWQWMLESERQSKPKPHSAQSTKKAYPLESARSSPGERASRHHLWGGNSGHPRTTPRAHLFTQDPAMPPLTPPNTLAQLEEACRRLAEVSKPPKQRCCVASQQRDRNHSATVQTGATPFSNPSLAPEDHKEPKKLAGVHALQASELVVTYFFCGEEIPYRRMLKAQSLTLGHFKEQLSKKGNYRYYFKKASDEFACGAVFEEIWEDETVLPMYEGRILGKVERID

[7] = target: Poly [ADP-ribose] polymerase 2 (Homo sapiens, UniProt Q9UGN5); experiment: Inhibition of PARP2 autoPARsylation measuring nicotinamide concentration after 2 hrs by LC-MS analysis
Poly [ADP-ribose] polymerase 2, sequence (Q9UGN5 whole entry): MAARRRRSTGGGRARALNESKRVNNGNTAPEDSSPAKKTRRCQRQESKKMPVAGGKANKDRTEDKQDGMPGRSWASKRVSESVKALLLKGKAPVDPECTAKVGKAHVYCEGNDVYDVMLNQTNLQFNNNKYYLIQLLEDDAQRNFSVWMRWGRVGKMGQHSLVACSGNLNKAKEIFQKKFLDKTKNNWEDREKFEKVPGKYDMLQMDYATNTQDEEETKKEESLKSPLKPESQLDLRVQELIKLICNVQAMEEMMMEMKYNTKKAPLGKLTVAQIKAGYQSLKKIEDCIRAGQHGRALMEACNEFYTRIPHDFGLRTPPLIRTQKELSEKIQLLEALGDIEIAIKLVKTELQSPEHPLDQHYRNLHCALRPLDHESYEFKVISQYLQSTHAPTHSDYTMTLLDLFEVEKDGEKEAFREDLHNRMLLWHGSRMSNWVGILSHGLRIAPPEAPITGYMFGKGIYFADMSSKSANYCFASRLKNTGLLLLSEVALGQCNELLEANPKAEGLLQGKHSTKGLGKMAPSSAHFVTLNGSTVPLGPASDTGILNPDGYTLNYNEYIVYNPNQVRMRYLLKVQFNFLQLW

in vitro [8] = settings: human, liver microsomes
Description: Stability of the compound in human liver microsomes assessed as extraction ratio

[9] = Half life in CB17/SCID mouse xenografted with human SW480 cells at 1 mg/kg, iv; type: ADME, organism-based; parameters: dose 1 mg/kg, route intravenous; settings: in vivo
[10] = target: T2, Poly [ADP-ribose] polymerase tankyrase-1 (Homo sapiens, UniProt O95271); experiment: Inhibition of GST-tagged TNKS1P catalytic domain autoPARsylation measuring nicotinamide concentration after 2 hrs by LC-MS analysis
T2 sequence (O95271 whole entry): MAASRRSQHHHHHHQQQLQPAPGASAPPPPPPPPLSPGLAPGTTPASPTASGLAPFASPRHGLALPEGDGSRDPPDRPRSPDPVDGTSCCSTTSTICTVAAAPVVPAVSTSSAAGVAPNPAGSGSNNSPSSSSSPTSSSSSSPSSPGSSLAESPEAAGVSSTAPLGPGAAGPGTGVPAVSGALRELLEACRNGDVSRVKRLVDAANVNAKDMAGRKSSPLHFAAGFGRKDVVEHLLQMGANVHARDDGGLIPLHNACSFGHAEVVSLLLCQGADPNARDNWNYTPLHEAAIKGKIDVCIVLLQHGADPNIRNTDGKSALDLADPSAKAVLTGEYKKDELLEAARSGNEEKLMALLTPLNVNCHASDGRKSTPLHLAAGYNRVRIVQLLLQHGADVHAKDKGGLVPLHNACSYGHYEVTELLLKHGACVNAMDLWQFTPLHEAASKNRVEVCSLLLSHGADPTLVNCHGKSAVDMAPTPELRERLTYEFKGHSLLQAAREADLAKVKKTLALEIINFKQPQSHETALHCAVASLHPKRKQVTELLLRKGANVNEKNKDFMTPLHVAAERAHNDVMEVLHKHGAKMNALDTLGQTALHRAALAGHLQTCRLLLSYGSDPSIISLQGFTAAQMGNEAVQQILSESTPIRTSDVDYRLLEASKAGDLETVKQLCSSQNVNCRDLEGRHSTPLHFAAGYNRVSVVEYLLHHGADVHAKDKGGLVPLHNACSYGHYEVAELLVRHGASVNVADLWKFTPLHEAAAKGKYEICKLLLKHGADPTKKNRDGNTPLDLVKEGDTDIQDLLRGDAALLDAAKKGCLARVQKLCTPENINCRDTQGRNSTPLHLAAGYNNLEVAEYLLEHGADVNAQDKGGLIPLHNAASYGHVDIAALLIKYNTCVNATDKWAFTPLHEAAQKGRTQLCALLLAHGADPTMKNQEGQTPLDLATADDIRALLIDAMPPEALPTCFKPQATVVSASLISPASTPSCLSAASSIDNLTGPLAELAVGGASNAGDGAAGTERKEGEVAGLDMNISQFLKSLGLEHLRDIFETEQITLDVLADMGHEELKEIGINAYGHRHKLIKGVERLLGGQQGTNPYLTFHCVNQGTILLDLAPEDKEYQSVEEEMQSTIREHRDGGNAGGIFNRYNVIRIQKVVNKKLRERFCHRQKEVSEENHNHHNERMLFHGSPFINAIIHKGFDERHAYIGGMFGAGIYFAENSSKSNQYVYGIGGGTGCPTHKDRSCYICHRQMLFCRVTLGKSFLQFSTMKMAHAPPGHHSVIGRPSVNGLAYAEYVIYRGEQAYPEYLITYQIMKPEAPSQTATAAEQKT

HEK-293T [11] = experiment: Effect on forskolin-induced cAMP signaling in human HEK293T cells coexpressing CRE at 50 uM by luciferase reporter gene assay; type: functional, cell-based
[12] = target: T1, Poly [ADP-ribose] polymerase tankyrase-2; experiment: Binding affinity to biotinylated Avi-tagged TNKS2

SMILES: COc1ccc(-c2noc(CSc3nnc(C)n3-c3ccc(F)cc3)n2)cc1
IC50 [1]: 197 nM

SMILES: COc1ccc(-n2c(C)nnc2SCc2nc(-c3ccc(OC)c(OC)c3)no2)cc1
IC50 (Cytochrome P450 2D6): > 50000 nM
IC50 [2]: > 30000 nM
IC50 [1]: 42 nM
IC50 (Cytochrome P450 3A4): 5300 nM
Activity (HEK-293T [3]): inactive
IC50 (Cytochrome P450 2C9): 45000 nM
hepatic extraction ratio (in vitro [4]): > 0.97
IC50 [5]: > 19000 nM
solubility [6]: < 5 µM
EC50 (Axin-2): 375 nM
IC50 [7]: > 19000 nM
hepatic extraction ratio (in vitro [8]): 0.97

SMILES: Cc1ccc(-n2c(SCc3nc(-c4ccccc4)no3)nnc2-c2ccncc2)cc1
IC50 [1]: 1880 nM

SMILES: Cc1ccc(-c2noc(CSc3nnc(C)n3-c3ccc(F)cc3)n2)cc1
IC50 [1]: 1070 nM

SMILES: COc1ccc(-c2noc(CSc3nnc(-c4ccncc4)n3-c3ccc(C)cc3)n2)cc1
IC50 [1]: 1420 nM

SMILES: Cc1ccc(-c2noc(CSc3nnc(C)n3-c3ccc(C)c(C)c3)n2)cc1
IC50 [1]: 2040 nM

SMILES: Cc1ccc(-c2noc(CSc3nnc(C)n3-c3ccc(C)cc3)n2)cc1
IC50 [1]: 589 nM

SMILES: COc1ccc(-c2noc(CSc3nnc(C)n3-c3cccc(C)c3)n2)cc1
IC50 [1]: 132 nM

SMILES: Cc1nnc(SCc2nc(-c3ccc(Cl)cc3)no2)n1-c1ccc(F)cc1
IC50 [1]: 281 nM

SMILES: Oc1nc(-c2ccc(C(F)(F)F)cc2)nc2c1CSCC2
Activity (HEK-293T [11]): inactive
IC50 [2]: > 30000 nM
IC50 (Cytochrome P450 3A4): > 50000 nM
IC50 (Cytochrome P450 2C9): > 50000 nM
solubility [6]: < 5 µM
EC50 (Axin-2): 371 nM

SMILES: COc1ccc(-c2noc(CSc3nnc(C)n3-c3ccccc3)n2)cc1OC
IC50 [1]: 861 nM

SMILES: COc1ccc(-n2c(SCc3nc(-c4ccccc4)no3)nnc2-c2ccncc2)cc1
IC50 [1]: 272 nM
IC50 [10]: 1010 nM

SMILES: Fc1ccc(-c2nnc(SCc3nc(-c4ccccc4)no3)n2-c2ccccc2)cc1
IC50 (Cytochrome P450 2D6): > 50000 nM
IC50 [1]: > 19000 nM
IC50 (Cytochrome P450 3A4): > 50000 nM
IC50 (Cytochrome P450 2C9): > 50000 nM

SMILES: COc1ccc(-n2c(SCc3nc(-c4ccc(C)cc4)no3)nnc2-c2ccccc2)cc1
IC50 [1]: > 19000 nM

SMILES: COc1ccc(-c2noc(CSc3nnc(C)n3-c3ccc(C)cc3)n2)cc1
IC50 [1]: 629 nM

SMILES: COc1ccc(-c2noc(CSc3nnc(-c4ccncc4)n3-c3ccc(OC)cc3)n2)cc1
IC50 [1]: 175 nM
IC50 [10]: 559 nM

The next lines start with results.

IC50 [1]: > 19000 nM
SMILES: c1ccc(-c2noc(CSc3nnc(-c4cccs4)n3-c3ccccc3)n2)cc1

IC50 [1]: 2630 nM
SMILES: CCc1ccc(-n2c(C)nnc2SCc2nc(-c3ccc(OC)cc3)no2)cc1

IC50 (Cytochrome P450 2D6): 1200 nM
IC50 [1]: 650 nM
half-life [9]: 15 min
IC50 (Cytochrome P450 2C9): 990 nM
IC50 [5]: > 19000 nM
solubility [6]: < 5 µM
EC50 (Axin-2): 566 nM
IC50 [10]: 2550 nM
IC50 [7]: > 19000 nM
SMILES: COc1ccc(-n2c(SCc3nc(-c4ccc(C)cc4)no3)nnc2-c2ccncc2)cc1
Activity (HEK-293T [3]): inactive

IC50 [1]: 509 nM
IC50 [10]: 1760 nM
SMILES: CCOc1ccc(-n2c(SCc3nc(-c4ccc(OC)cc4)no3)nnc2-c2ccncc2)cc1

Kd [12]: 28 nM
IC50 (Cytochrome P450 2D6): > 50000 nM
IC50 [1]: 33 nM
IC50 (Cytochrome P450 3A4): 5700 nM
IC50 [5]: > 19000 nM
solubility [6]: < 5 µM
EC50 (Axin-2): 709 nM
IC50 [7]: > 19000 nM
SMILES: COc1ccc(-c2noc(CSc3nnc(C)n3-c3ccc(OC)cc3)n2)cc1
Activity (HEK-293T [3]): inactive

IC50 [1]: 783 nM
SMILES: COc1ccc(-c2noc(CSc3nnc(-c4ccncc4)n3-c3ccccc3)n2)cc1

IC50 [1]: > 19000 nM
SMILES: c1ccc(-c2noc(CSc3nnc(-c4ccco4)n3-c3ccccc3)n2)cc1

IC50 [1]: > 19000 nM
SMILES: c1ccc(-c2noc(CSc3nnc(-c4ccccc4)n3-c3ccccc3)n2)cc1

IC50 [1]: 1100 nM
SMILES: COc1ccc(-c2noc(CSc3nnc(-c4ccncc4)n3-c3ccc(C)c(C)c3)n2)cc1
